Publication PMC4661928, “Production of Two Novel Methoxy-Isoflavones from Biotransformation of 8-Hydroxydaidzein by Recombinant Escherichia coli Expressing O-Methyltransferase SpOMT2884 from Streptomyces peucetius” (International Journal of Molecular Sciences, 2015)

Target: T1, SpOMT2884 (Streptomyces peucetius, UniProt T1WTM5)
T1 construct: gene OMT2884; codon-optimised synthetic gene in pETDuet-1 (NdeI/XhoI), expressed in E. coli BL21(DE3); whole-cell biotransformation, not purified
T1 sequence (T1WTM5 1-223): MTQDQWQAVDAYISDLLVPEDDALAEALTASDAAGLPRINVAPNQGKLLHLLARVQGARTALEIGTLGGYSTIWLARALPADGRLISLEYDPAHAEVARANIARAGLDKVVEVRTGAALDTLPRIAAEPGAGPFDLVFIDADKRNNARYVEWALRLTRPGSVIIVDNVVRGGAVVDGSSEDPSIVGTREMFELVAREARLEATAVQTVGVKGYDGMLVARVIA
Assay: whole-cell biotransformation, UPLC; products by MS and NMR
Type: cell-based
Details: recombinant E. coli BL21(DE3), 0.1 mM substrate, 37 °C, endogenous SAM; 7-O- and 8-O-methylation

## O=c1c(-c2ccc(O)cc2)coc2c(O)c(O)ccc12 [8-hydroxydaidzein]
  whole-cell biotransformation, UPLC; products by MS and NMR: SpOMT2884 catalyzes either 7-O-methylation or 8-O-methylation in 8-hydroxydaidzein
